# Assays:
# [1] = system: E. coli NCTC 13441 (UPEC); assay: MIC broth microdilution; format: cell-based, Escherichia coli; conditions: for MIC: Escherichia coli, NCTC13441
# How it was run: (§1)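 Following CLSI standards, susceptibility is measured in cation-adjusted Müller-Hinton broth at 37° C without added CO2 for 20-24 hours. Test concentrations run 0.39-200 μM final in doubling steps, DMSO capped at 2%. MIC: lowest concentration without bacterial growth.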
# [2] = system: K. pneumoniae H154300688 (KP9); assay: MIC broth microdilution; format: cell-based, Klebsiella pneumoniae; conditions: for MIC: Klebsiella pneumoniae
# How it was run: (§2)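 Planktonic MIC determination: compound tested two-fold from 200 down to 0.39 μM final with DMSO capped at 2% final, cation-adjusted Müller-Hinton broth, 37° C for 20-24 hours. Endpoint is the lowest concentration inhibiting growth.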
# [3] = system: K. pneumoniae H154600588 (KP8); assay: MIC broth microdilution; format: cell-based, Klebsiella pneumoniae; conditions: for MIC: Klebsiella pneumoniae
# How it was run: as §2
# [4] = system: K. pneumoniae H154020667 (KP6); assay: MIC broth microdilution; format: cell-based, Klebsiella pneumoniae; conditions: for MIC: Klebsiella pneumoniae
# How it was run: as §2
# [5] = system: K. pneumoniae H154680676 (KP5); assay: MIC broth microdilution; format: cell-based, Klebsiella pneumoniae; conditions: for MIC: Klebsiella pneumoniae
# How it was run: as §2
# [6] = system: K. pneumoniae H151440671 (KP10); assay: MIC broth microdilution; format: cell-based, Klebsiella pneumoniae; conditions: for MIC: Klebsiella pneumoniae
# How it was run: as §2
# [7] = system: K. pneumoniae NCTC 13438 (KP1); assay: MIC broth microdilution; format: cell-based, Klebsiella pneumoniae; conditions: for MIC: Klebsiella pneumoniae, NCTC13438
# How it was run: as §2
# [8] = system: K. pneumoniae ATCC 700603 (KP3); assay: MIC broth microdilution; format: cell-based, Klebsiella pneumoniae; conditions: for MIC: Klebsiella pneumoniae, ATCC700603
# How it was run: as §2
# [9] = system: K. pneumoniae H154640784 (KP7); assay: MIC broth microdilution; format: cell-based, Klebsiella pneumoniae; conditions: for MIC: Klebsiella pneumoniae
# How it was run: as §2
# [10] = system: Klebsiella pneumoniae ATCC 10031 (KP2); assay: MIC broth microdilution; format: cell-based; conditions: for MIC: ATCC10031
# How it was run: as §2
# [11] = system: Salmonella typhimurium XNAA5 (St); assay: MIC broth microdilution; format: cell-based; conditions: for MIC: Salmonella enterica
# How it was run: as §1
# [12] = system: Escherichia coli K12 (EC); assay: MIC broth microdilution; format: cell-based
# How it was run: as §1
# [13] = system: Enterobacter cloacae DSM 30054 (Ed); assay: MIC broth microdilution; format: cell-based; conditions: for MIC: DSM30054
# How it was run: as §2
# [14] = system: Acinetobacter baumannii ATCC 17978 (AB); assay: MIC broth microdilution; format: cell-based; conditions: for MIC: ATCC17978
# How it was run: as §1
# [15] = system: Pseudomonas aeruginosa ATCC 33359 (PA); assay: MIC broth microdilution; format: cell-based; conditions: for MIC: ATCC33359
# How it was run: as §1
# [16] = system: Staphylococcus aureus ATCC 35556 (SA); assay: MIC broth microdilution; format: cell-based; conditions: for MIC: ATCC35556
# How it was run: as §1
# [17] = system: Serratia marcescens SL1344 (Sm); assay: MIC broth microdilution; format: cell-based
# How it was run: as §1
# [18] = system: human hepatocarcinoma cell line ATCC HB-8065 (HepG2); assay: Human cell viability (CellTiter-Glo); format: cell-based; conditions: Homo sapiens; HepG2 cells, 24 h incubation, CellTiter-Glo luminescence, 0.2-100 μM; read-out: IC50 values against the HepG2 cell line
# How it was run: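 HepG2 cells were seeded at 20,000 cells/well in MEM with 10% FBS and, after 24 h, exposed for 24 h at 37° C. to two-fold dilutions (final 0.2-100 μM) in MEM with 1% FBS and 1% DMSO. Viability was read by CellTiter-Glo luminescence, with IC50 from a 4-parameter logistic fit.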
MIC [1] [µM],MIC [2] [µM],MIC [3] [µM],MIC [4] [µM],MIC [5] [µM],MIC [6] [µM],MIC [7] [µM],MIC [8] [µM],MIC [9] [µM],MIC [10] [µM],MIC [11] [µM],MIC [12] [µM],MIC [13] [µM],MIC [14] [µM],MIC [15] [µM],MIC [16] [µM],MIC [17] [µM],IC50 [18] [µM],SMILES,further results
–,–,–,–,–,–,–,–,–,–,–,–,–,–,–,–,–,–,C[C@H]1c2cccc(O)c2C(=O)C2=C(O)[C@]3(O)C(=O)C(C(N)=O)=C(O)[C@@H](N(C)C)[C@@H]3[C@@H](O)[C@@H]21 [DOX],MIC UPEC [1]: C (a MIC of from 10 to 100 is assigned the letter C); MIC KP9 [2]: C (a MIC of from 10 to 100 is assigned the letter C); MIC KP8 [3]: C (a MIC of from 10 to 100 is assigned the letter C); MIC KP6 [4]: C (a MIC of from 10 to 100 is assigned the letter C); MIC KP5 [5]: C (a MIC of from 10 to 100 is assigned the letter C); MIC KP10 [6]: B (a MIC of from 1 to 10 is assigned the letter B); MIC KP1 [7]: C (a MIC of from 10 to 100 is assigned the letter C); MIC KP3 [8]: C (a MIC of from 10 to 100 is assigned the letter C); MIC KP7 [9]: C (a MIC of from 10 to 100 is assigned the letter C); MIC KP2 [10]: A (an MIC (μM) of less or equal to 1 is assigned the letter A); MIC St [11]: B (a MIC of from 1 to 10 is assigned the letter B); MIC EC [12]: B (a MIC of from 1 to 10 is assigned the letter B); MIC Ecl [13]: B (a MIC of from 1 to 10 is assigned the letter B); MIC AB [14]: A (an MIC (μM) of less or equal to 1 is assigned the letter A); MIC PA [15]: C (a MIC of from 10 to 100 is assigned the letter C); MIC SA [16]: A (an MIC (μM) of less or equal to 1 is assigned the letter A); MIC Sm [17]: B (a MIC of from 1 to 10 is assigned the letter B)
≤ 1,1 to 10,1 to 10,≤ 1,1 to 10,≤ 1,1 to 10,1 to 10,1 to 10,≤ 1,≤ 1,≤ 1,≤ 1,> 100,> 100,> 100,10 to 100,> 100,"CNc1cc(-c2[nH]c(N)nc2-c2ccc3c(c2)CCO3)ccn1 [Example 9, 4-(2-Amino-4-(2,3-dihydrobenzofuran-5-yl)-1H-imidazol-5-yl)-N-methylpyridin-2-amine]",–
≤ 1,≤ 1,1 to 10,≤ 1,≤ 1,≤ 1,1 to 10,1 to 10,1 to 10,≤ 1,≤ 1,≤ 1,≤ 1,> 100,> 100,> 100,≤ 1,25 to 100,"Cc1cc(-c2[nH]c(N)nc2-c2ccc(OCc3ccc(F)cc3)nc2)ccn1 [Example 28, 4-(6-((4-Fluorobenzyl)oxy)pyridin-3-yl)-5-(2-methylpyridin-4-yl)-1H-imidazol-2-amine]",–
≤ 1,1 to 10,1 to 10,1 to 10,1 to 10,1 to 10,1 to 10,1 to 10,1 to 10,≤ 1,≤ 1,≤ 1,≤ 1,> 100,> 100,> 100,1 to 10,> 100,"Cc1cc(-c2[nH]c(N)nc2-c2ccc3c(c2)CCO3)ccn1 [Example 3, 4-(2,3-Dihydrobenzofuran-5-yl)-5-(2-methylpyridin-4-yl)-1H-imidazol-2-amine]",–
–,–,–,–,–,–,–,–,–,–,–,–,–,–,–,–,–,–,C[C@@H](O)[C@H]1C(=O)N2C(C(=O)O)=C(SCCN=CN)C[C@H]12 [IPM],MIC UPEC [1]: A (an MIC (μM) of less or equal to 1 is assigned the letter A); MIC KP9 [2]: D (a MIC of over 100 is assigned the letter D); MIC KP8 [3]: D (a MIC of over 100 is assigned the letter D); MIC KP6 [4]: B (a MIC of from 1 to 10 is assigned the letter B); MIC KP5 [5]: B (a MIC of from 1 to 10 is assigned the letter B); MIC KP10 [6]: C (a MIC of from 10 to 100 is assigned the letter C); MIC KP1 [7]: C (a MIC of from 10 to 100 is assigned the letter C); MIC KP3 [8]: B (a MIC of from 1 to 10 is assigned the letter B); MIC KP7 [9]: C (a MIC of from 10 to 100 is assigned the letter C); MIC KP2 [10]: B (a MIC of from 1 to 10 is assigned the letter B); MIC St [11]: B (a MIC of from 1 to 10 is assigned the letter B); MIC EC [12]: A (an MIC (μM) of less or equal to 1 is assigned the letter A); MIC Ecl [13]: B (a MIC of from 1 to 10 is assigned the letter B); MIC AB [14]: A (an MIC (μM) of less or equal to 1 is assigned the letter A); MIC PA [15]: B (a MIC of from 1 to 10 is assigned the letter B); MIC SA [16]: A (an MIC (μM) of less or equal to 1 is assigned the letter A); MIC Sm [17]: B (a MIC of from 1 to 10 is assigned the letter B)
≤ 1,1 to 10,1 to 10,≤ 1,≤ 1,≤ 1,1 to 10,1 to 10,1 to 10,≤ 1,≤ 1,≤ 1,≤ 1,> 100,> 100,> 100,1 to 10,> 100,"Cc1cc(-c2[nH]c(N)nc2-c2ccc3c(c2)NCCO3)ccn1 [Example 27, 4-(3,4-Dihydro-2H-benzo[b][1,4]oxazin-6-yl)-5-(2-methylpyridin-4-yl)-1H-imidazol-2-amine]",–
≤ 1,≤ 1,1 to 10,≤ 1,≤ 1,≤ 1,1 to 10,1 to 10,1 to 10,≤ 1,≤ 1,≤ 1,≤ 1,> 100,> 100,> 100,1 to 10,> 100,"Cc1cc(-c2[nH]c(N)nc2-c2ccc3c(c2)OCCO3)ccn1 [Example 23, 4-(2,3-Dihydrobenzo[b][1,4]dioxin-6-yl)-5-(2-methylpyridin-4-yl)-1H-imidazol-2-amine]",–
≤ 1,≤ 1,1 to 10,≤ 1,≤ 1,≤ 1,≤ 1,≤ 1,1 to 10,≤ 1,≤ 1,≤ 1,≤ 1,10 to 100,> 100,10 to 100,≤ 1,25 to 100,"Cc1cc(-c2[nH]c(N)nc2-c2ccc(OCc3ccc(F)cc3)cc2)ccn1 [Example 19, 4-(4-((4-Fluorobenzyl)oxy)phenyl)-5-(2-methylpyridin-4-yl)-1H-imidazol-2-amine]",–
≤ 1,≤ 1,1 to 10,≤ 1,≤ 1,≤ 1,1 to 10,1 to 10,1 to 10,≤ 1,≤ 1,≤ 1,≤ 1,> 100,> 100,10 to 100,≤ 1,25 to 100,"Nc1cc(-c2[nH]c(N)nc2-c2ccc(OCc3ccc(F)cc3)cc2)ccn1 [Example 7, 4-(2-Amino-4-(4-((4-fluorobenzyl)oxy)phenyl)-1H-imidazol-5-yl)pyridin-2-amine]",–
≤ 1,≤ 1,≤ 1,≤ 1,≤ 1,≤ 1,≤ 1,≤ 1,≤ 1,≤ 1,≤ 1,≤ 1,≤ 1,> 100,> 100,> 100,≤ 1,25 to 100,"Cc1cc(-c2nc(N)[nH]c2-c2ccc(OCc3ccc(F)cc3)c(F)c2)ccn1 [Example 16, 5-(3-Fluoro-4-((4-fluorobenzyl)oxy)phenyl)-4-(2-methylpyridin-4-yl)-1H-imidazol-2-amine]",–

# Source: US11345694B2, “Antibacterial compounds” (DISCUVA LTD., priority 2017, dated 2022)
